Values joined by “and” are separate entries in the source; they are usually repeats but may differ in a detail not shown here. Equal values may be shown once. Toxic doses and inconclusive results are not listed.
Test system: BDF1 mice, P388 leukemia ip, median survival T/C
Experiment: NCI In Vivo Anticancer Drug Screen. Data for tumor model P388 Leukemia (intraperitoneal) in B6D2F1 (BDF1) mice
Conditions: endpoint: median survival time, higher = longer survival
Procedure, shortened: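 Transplantable tumour in mice; compound vs vehicle dosing; survival scored; ratio of treated to control reported.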

[1] = dose: 25.0 mg/kg/injection, schedule: Q01DX009 (ip), vehicle: saline with Tween-80
[2] = dose: 50.0 mg/kg/injection, schedule: Q04DX003 (ip), vehicle: saline with Tween-80
[3] = dose: 50.0 mg/kg/injection, schedule: Q01DX009 (ip), vehicle: saline with Tween-80
[4] = dose: 100.0 mg/kg/injection, schedule: Q01DX009 (ip), vehicle: saline with Tween-80
[5] = dose: 200.0 mg/kg/injection, schedule: Q01DX009 (ip), vehicle: saline with Tween-80
[6] = dose: 100.0 mg/kg/injection, schedule: Q01DX001 (ip), vehicle: Klucel (hydroxypropylcellulose) (HPC)
[7] = dose: 200.0 mg/kg/injection, schedule: Q01DX001 (ip), vehicle: Klucel (hydroxypropylcellulose) (HPC)
[8] = dose: 400.0 mg/kg/injection, schedule: Q01DX001 (ip), vehicle: Klucel (hydroxypropylcellulose) (HPC)
[9] = dose: 50.0 mg/kg/injection, schedule: Q04DX003 (ip), vehicle: saline
[10] = dose: 100.0 mg/kg/injection, schedule: Q04DX003 (ip), vehicle: saline with Tween-80
[11] = dose: 200.0 mg/kg/injection, schedule: Q04DX003 (ip), vehicle: saline with Tween-80

Cc1cccc(C(=O)C=C(C(F)(F)F)C(F)(F)F)c1
T/C (dose: 6.25 mg/kg/injection, schedule: Q01DX009 (ip), vehicle: saline with Tween-80): 110 % of control | T/C (dose: 12.5 mg/kg/injection, schedule: Q01DX009 (ip), vehicle: saline with Tween-80): 155 % of control | T/C (dose: 12.5 mg/kg/injection, schedule: Q04DX003 (ip), vehicle: saline with Tween-80): 119 % of control | T/C (dose: 12.5 mg/kg/injection, schedule: Q04DX003 (sc), vehicle: saline with Tween-80): 105 % of control | T/C [1]: 150 % of control | T/C (dose: 25.0 mg/kg/injection, schedule: Q04DX003 (ip), vehicle: saline with Tween-80): 104 % of control | T/C (dose: 25.0 mg/kg/injection, schedule: Q04DX003 (sc), vehicle: saline with Tween-80): 115 % of control | T/C [2]: 119 % of control | T/C (dose: 50.0 mg/kg/injection, schedule: Q04DX003 (sc), vehicle: saline with Tween-80): 120 % of control

Cc1ccc(NC(=O)NCC2(C)CC(NC(=O)Nc3ccc(C)cc3)CC(C)(C)C2)cc1 (configuration not stated)
T/C (dose: 12.5 mg/kg/injection, schedule: Q01DX009 (ip), vehicle: Klucel (hydroxypropylcellulose) (HPC)): 100 % of control | T/C (dose: 25.0 mg/kg/injection, schedule: Q01DX009 (ip), vehicle: Klucel (hydroxypropylcellulose) (HPC)): 100 % of control | T/C (dose: 50.0 mg/kg/injection, schedule: Q01DX009 (ip), vehicle: Klucel (hydroxypropylcellulose) (HPC)): 100 % of control | T/C (dose: 75.0 mg/kg/injection, schedule: Q01DX009 (ip), vehicle: Klucel (hydroxypropylcellulose) (HPC)): 90 % of control | T/C (dose: 115.0 mg/kg/injection, schedule: Q01DX009 (ip), vehicle: Klucel (hydroxypropylcellulose) (HPC)): 90 % of control | T/C (dose: 170.0 mg/kg/injection, schedule: Q01DX009 (ip), vehicle: Klucel (hydroxypropylcellulose) (HPC)): 90 % of control

CC(C)=CCC1=C(OC2OC(CO)C(O)C(O)C2O)C(=O)c2ccccc2C1=O (configuration not stated)
T/C (dose: 1.56 mg/kg/injection, schedule: Q01DX009 (ip), vehicle: saline with Tween-80): 123 % of control | T/C (dose: 3.13 mg/kg/injection, schedule: Q01DX009 (ip), vehicle: saline with Tween-80): 160 % of control

O=C(NO)c1ccccn1
T/C (dose: 130.0 mg/kg/injection, schedule: Q01DX010 (ip), vehicle: water): 109 % of control | T/C (dose: 200.0 mg/kg/injection, schedule: Q01DX010 (ip), vehicle: water): 100 % of control

Cc1ccc(S(=O)(=O)OC2CS(=O)(=O)C2)cc1
T/C [1]: 102 % of control | T/C [3]: 100 % of control | T/C [4]: 102 % of control | T/C [5]: 102 % of control

CC1(C)COCN1COC1CCCCC1
T/C [5]: 90 % of control

CC(=O)N=C1CCCC1C#N (configuration not stated)
T/C [6]: 104 % of control | T/C [7]: 100 % of control | T/C [8]: 95 % of control

C=CCN1CSC(=S)N(CC=C)C1
T/C [1]: 100 % of control | T/C [3]: 87 % of control

C[N+](C)(C)CCC[n+]1ccc(CCn2ccc3ccccc32)cc1
T/C (dose: 25.0 mg/kg/injection, schedule: Q01DX001 (ip), vehicle: saline): 100 % of control | T/C (dose: 50.0 mg/kg/injection, schedule: Q01DX001 (ip), vehicle: saline): 105 % of control | T/C (dose: 100.0 mg/kg/injection, schedule: Q01DX001 (ip), vehicle: saline): 105 % of control

CC(C)CCC[C@@H](C)[C@H]1CC[C@H]2[C@@H]3CC=C4C[C@@H](O)CC[C@]4(C)[C@H]3CC[C@]12C
T/C (dose: 100.0 mg/kg/injection, schedule: Q01DX009 (ip), vehicle: other): 106 % of control | T/C (dose: 200.0 mg/kg/injection, schedule: Q01DX009 (ip), vehicle: other): 103 % of control | T/C (dose: 400.0 mg/kg/injection, schedule: Q01DX009 (ip), vehicle: other): 89 % of control | T/C (dose: 800.0 mg/kg/injection, schedule: Q01DX009 (ip), vehicle: other): 105 % of control

O=C1NC(=O)C([N+](=O)[O-])=C(O)C1=O
T/C (dose: 1.0 mg/kg/injection, schedule: Q01DX009 (ip), vehicle: saline with Tween-80): 110 % of control | T/C (dose: 4.0 mg/kg/injection, schedule: Q01DX009 (ip), vehicle: saline with Tween-80): 105 % of control | T/C (dose: 8.0 mg/kg/injection, schedule: Q01DX009 (ip), vehicle: saline with Tween-80): 100 % of control | T/C (dose: 9.0 mg/kg/injection, schedule: Q01DX009 (ip), vehicle: saline with Tween-80): 150 % of control | T/C (dose: 15.0 mg/kg/injection, schedule: Q01DX009 (ip), vehicle: saline with Tween-80): 95 % of control | T/C (dose: 18.0 mg/kg/injection, schedule: Q01DX009 (ip), vehicle: saline with Tween-80): 110 % of control | T/C (dose: 25.0 mg/kg/injection, schedule: Q04DX003 (ip), vehicle: other): 104 % of control | T/C (dose: 35.0 mg/kg/injection, schedule: Q01DX009 (ip), vehicle: saline with Tween-80): 100 % of control and 120 % of control | T/C (dose: 35.0 mg/kg/injection, schedule: Q04DX003 (ip), vehicle: other): 104 % of control | T/C [3]: 90 % of control and 95 % of control | T/C (dose: 50.0 mg/kg/injection, schedule: Q04DX003 (ip), vehicle: other): 104 % of control | T/C [9]: 118 % of control | T/C (dose: 75.0 mg/kg/injection, schedule: Q01DX009 (ip), vehicle: saline with Tween-80): 105 % of control | T/C (dose: 75.0 mg/kg/injection, schedule: Q04DX003 (ip), vehicle: other): 100 % of control | T/C (dose: 100.0 mg/kg/injection, schedule: Q04DX003 (ip), vehicle: saline): 109 % of control | T/C (dose: 150.0 mg/kg/injection, schedule: Q01DX009 (ip), vehicle: saline with Tween-80): 95 % of control | T/C (dose: 200.0 mg/kg/injection, schedule: Q04DX003 (ip), vehicle: saline): 104 % of control and 122 % of control | T/C (dose: 300.0 mg/kg/injection, schedule: Q01DX009 (ip), vehicle: saline with Tween-80): 90 % of control

C=CC1CN2CCC1CC2C(O)c1ccnc2ccccc12 (configuration not stated)
T/C [2]: 102 % of control | T/C [10]: 88 % of control | T/C [11]: 107 % of control

ClC(Cl)(Cl)c1nc2nccnc2[nH]1
T/C (dose: 44.0 mg/kg/injection, schedule: Q04DX003 (ip), vehicle: Klucel (hydroxypropylcellulose) (HPC)): 104 % of control | T/C [2]: 109 % of control | T/C (dose: 66.0 mg/kg/injection, schedule: Q04DX003 (ip), vehicle: Klucel (hydroxypropylcellulose) (HPC)): 108 % of control | T/C (dose: 66.0 mg/kg/injection, schedule: Q04DX003 (ip), vehicle: saline with Tween-80): 109 % of control | T/C [10]: 104 % of control | T/C (dose: 150.0 mg/kg/injection, schedule: Q04DX003 (ip), vehicle: Klucel (hydroxypropylcellulose) (HPC)): 100 % of control

CCCC1CC[N-]CC1.CCCC1CC[N-]CC1.CCCC1CC[N-]CC1.CCCC1CC[N-]CC1.[Cl][Ni][Cl]
T/C (dose: 2.0 mg/kg/injection, schedule: Q01DX009 (ip), vehicle: saline): 116 % of control | T/C (dose: 4.0 mg/kg/injection, schedule: Q01DX009 (ip), vehicle: saline): 97 % of control | T/C (dose: 6.25 mg/kg/injection, schedule: Q01DX009 (ip), vehicle: saline): 112 % of control | T/C (dose: 8.0 mg/kg/injection, schedule: Q01DX009 (ip), vehicle: saline): 116 % of control | T/C [9]: 100 % of control

CCCNC(=O)Nc1cccc(Cl)c1C
T/C [10]: 104 % of control | T/C [11]: 100 % of control | T/C (dose: 400.0 mg/kg/injection, schedule: Q04DX003 (ip), vehicle: saline with Tween-80): 100 % of control

O=C(O)c1cc(Br)ccc1OCc1cccc(Cl)c1
T/C [10]: 99 % of control

Cc1ccc2ccccc2c1Cc1c(C=O)[nH]c(=S)[nH]c1=O
T/C [10]: 104 % of control | T/C [11]: 122 % of control

O=c1[nH]cnc2nc(Br)[nH]c12
T/C [3]: 100 % of control | T/C [4]: 101 % of control | T/C [5]: 93 % of control | T/C (dose: 400.0 mg/kg/injection, schedule: Q01DX009 (ip), vehicle: saline with Tween-80): 101 % of control

O=C1Nc2c(Cl)cc(Cl)cc2C12Nc1ccccc1S2 (configuration not stated)
T/C [3]: 112 % of control | T/C [4]: 96 % of control | T/C [5]: 107 % of control

COC(OC)c1[nH]c(=S)[nH]c(=O)c1Cc1cc(C)ccc1C
T/C (dose: 50.0 mg/kg/injection, schedule: Q04DX003 (ip), vehicle: Klucel (hydroxypropylcellulose) (HPC)): 95 % of control | T/C [6]: 104 % of control | T/C (dose: 100.0 mg/kg/injection, schedule: Q04DX003 (ip), vehicle: Klucel (hydroxypropylcellulose) (HPC)): 100 % of control | T/C [7]: 104 % of control | T/C (dose: 200.0 mg/kg/injection, schedule: Q04DX003 (ip), vehicle: Klucel (hydroxypropylcellulose) (HPC)): 95 % of control | T/C [8]: 109 % of control
